The experiment concerns the target T1, deoxyhypusine synthase (DHS) (Homo sapiens, UniProt P49366).
T1 sequence (P49366 1-369): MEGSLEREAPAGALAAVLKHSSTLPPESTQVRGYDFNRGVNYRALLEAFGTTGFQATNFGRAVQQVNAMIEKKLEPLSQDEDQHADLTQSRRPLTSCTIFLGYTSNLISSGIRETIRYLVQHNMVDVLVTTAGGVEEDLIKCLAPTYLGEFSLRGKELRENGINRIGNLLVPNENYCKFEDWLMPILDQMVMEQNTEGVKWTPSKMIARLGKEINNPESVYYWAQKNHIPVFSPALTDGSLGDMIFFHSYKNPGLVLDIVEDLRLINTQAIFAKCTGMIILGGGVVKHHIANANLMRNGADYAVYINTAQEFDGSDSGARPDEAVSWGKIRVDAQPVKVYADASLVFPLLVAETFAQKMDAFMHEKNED
The format is biochemical.

For orientation: IC50 means the concentration that gives 50% inhibition. As for `N=C(N)NCCCCCCCN` [GC7], the IC50 was less than 1000 nM.

Source of the values: PMC5693660 (Amino acids, 2017).
